Source: article PMC6155239, “Targeting PFKFB3 radiosensitizes cancer cells and suppresses homologous recombination” (Nature Communications, 2018)
pIC50: −log10 of the molar value.

Legend:
[1] = tested on: 97 kinases of the scanEDGE set; test: DiscoveRx KINOMEscan scanEDGE panel; assay type: binding; settings: 2 µM
[2] = tested on: intracellular F-2,6-P2 levels; test: Intracellular F-2,6-P2 quantification (van Schaftingen assay); assay type: cell-based; settings: pancreatic, gastric and colon cancer cell lines
Method: Quantification of F-2,6-P2 was performed as described by Van Schaftingen et al.[34]. The assay is based on the potent activation of pyrophosphate-dependent phosphofructokinase-1 (PPi-PFK) from potato tubers by F-2,6-P2. The use of a series of coupled enzymes leads to a consumption of nicotinamide adenine dinucleotide (NADH) that can be followed spectrophotometrically. PANC-1, NUGC-3, SW620, or MIA PaCa-2 cells were seeded at a density of 2.5 × 10^4–3.5 × 10^4 cells per well (96-well, CLS3595, Sigma-Aldrich) and incubated overnight at 37 °C and 5% CO2. […] Plates stored at −20 °C were thawed and the F-2,6-P2 quantification was initiated by transferring 40 µL from each well of the NUNC plate to the corresponding position in a transparent 96-well SpectraPlate-MB (PerkinElmer). In order to ensure that all F-2,6-P2 measured values were within the linear range of response (between 0 and 1 nM final concentration of F-2,6-P2[34]), the same sample volume of an in-house produced F-2,6-P2 standard was included on each plate. […] The coupled enzymatic reaction was allowed to proceed for 45 min at room temperature and the absorbance at 340 nm was continuously measured every 30 s (SpectraMax plate reader, Molecular Devices). The measured absorbance was proportional to the concentration of NADH, which in turn was proportional to the levels of F-2,6-P2 within the linear range. […]

U2OS cells = test: Intracellular dNTP measurement (HIV-1 RT-based); assay type: cell-based; settings: 4 h and 24 h, relative to DMSO
Method: HIV-1 RT-based dNTP assay[55] was used to quantify dNTP levels in U2OS cells upon indicated treatment and time points. Briefly, cells were trypsinized and counted before dNTPs extraction by 60% methanol solution, the dried dNTP samples were resuspended with water, and then RT-based primer extension reaction was performed to determine the amounts of dNTPs. Obtained dNTP amounts were normalized to 1 × 10^6 cells, and dNTP levels were related to control treatment with DMSO.

PFKFB3 = PFKFB3 (Homo sapiens, UniProt Q16875); test: ADP-Glo kinase activity assay, PFKFB3; assay type: biochemical
Method: The kinase activity of the bi-functional enzyme was quantified based on the production of ADP and F-2,6-P2 from ATP by ADP-GloTM Kinase Assay (Promega). The assay was performed in two steps; first, after the kinase reaction, an equal volume of ADP-GloTM Reagent was added to terminate the kinase reaction and deplete the remaining ATP. Second, the Kinase Detection Reagent was added to simultaneously convert ADP to ATP and allow the newly synthesized ATP to be measured using a luciferase/luciferin reaction. The light generated was measured using a luminescence counter (1450 MicroBeta TriLux). The assay was performed in white 384-well plates (OptiPlate, 6007299, PerkinElmer) by consecutive additions of a test compound solution (0.1 µL, serial diluted in DMSO from compound DMSO stock solution and dispensed by acoustic dispensing from UV-star 384-well plate 7360153, VWR), enzyme solution (5 µL) and substrate (fructose-6-phosphate (F6P) and adenosine-5′-triphosphate (ATP)) containing solution (5 µL). […] Four reference dose–response curves, one of them being the QC compound, were included and serial diluted as the test compounds. The final concentrations of all reagents per well were 50 mM Tris–HCl at pH 8.0, 10 mM MgCl2, 5 mM NaPi at pH 8.0, 81.48 nM PFKFB3 or 145 nM PFKFB4, 8 µM ATP, 100 µM F6P (acid treated and then neutralized to remove any contaminating F-2,6-P2[34]), 0.005% Tween-20 and 1 mM dithiothreitol. Enzyme, compounds, and controls were pre-incubated at room temperature for 15 min before the addition of substrate solution. The enzymatic reaction was allowed to proceed for 20 min and the reaction was terminated by the addition of ADP-GloTM Reagent (10 µL) to all wells followed by 40 min incubation at room temperature. […] The inhibitory potency or IC50 values of test compounds on the kinase activity of the enzymes were calculated using a four-parameter model (model 205) in XLfit (IDBS ActivityBase XE Runner).

PFKFB3, sequence (Q16875 whole entry): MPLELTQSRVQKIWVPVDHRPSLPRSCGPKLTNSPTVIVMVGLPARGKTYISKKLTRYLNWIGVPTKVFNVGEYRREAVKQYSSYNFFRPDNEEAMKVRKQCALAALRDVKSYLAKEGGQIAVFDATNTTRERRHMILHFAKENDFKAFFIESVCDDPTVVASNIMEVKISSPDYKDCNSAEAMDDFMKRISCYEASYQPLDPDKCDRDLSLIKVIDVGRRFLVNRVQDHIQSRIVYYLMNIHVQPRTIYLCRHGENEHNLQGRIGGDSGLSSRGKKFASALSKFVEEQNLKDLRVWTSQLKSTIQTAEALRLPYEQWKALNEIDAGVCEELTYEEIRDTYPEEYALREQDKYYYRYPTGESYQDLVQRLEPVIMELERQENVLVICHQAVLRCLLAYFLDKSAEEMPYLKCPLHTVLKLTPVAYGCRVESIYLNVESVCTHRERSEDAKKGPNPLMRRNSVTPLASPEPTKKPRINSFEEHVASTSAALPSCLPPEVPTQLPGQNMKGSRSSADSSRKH

Row | SMILES | binding to the 97 targets of the scanEDGE set [1] | potency on intracellular F-2,6-P2 levels (in words) [2] | decrease of all four dNTPs (U2OS cells) | inhibition of recombinant PFKFB3 kinase activity (in words) (PFKFB3; in vitro enzymatic assay) | pIC50 (PFKFB3; ADP-GLO assay)
1 | O=C(OCCO)c1ccc(NS(=O)(=O)c2cccc(-c3cc(F)ccc3O)c2)cc1O [KAN0438757, 2-Hydroxyethyl-4-{[(5′-fluoro-2′-hydroxybiphenyl-3-yl)sulfonyl]amino}-2-hydroxybenzoate] | no significant binding | sub-µM IC50 values | 50–75% | largely inactive | 
2 | O=C(O)c1ccc(NS(=O)(=O)c2cccc(-c3cc(F)ccc3O)c2)cc1O [KAN0438241, 4-{[(5′-Fluoro-2′-hydroxybiphenyl-3-yl)sulfonyl]amino}-2-hydroxybenzoic acid] | no significant binding | low µM potency |  |  | 6.72
